According to the supplement of paper PMC10883282:

What was measured:
MES-SA [1] = assay: relative viability vs DMSO control (72 h) (fraction); higher = more viable cells
How it was run: (§1)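 Percent growth from ATPLite readings, averaged over up to triplicate wells, was used as relative viability. Sarcoma cell lines were seeded into 384-well plates for 80–90% confluence, dosed after 24 h, and kept 72 h at 37 °C, 5% CO2. Data were rescaled to a range where 1 is full and 0 is none.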

HS729 [2] = assay: as above
How it was run: as §1

VA-ES-BJ [3] = assay: as above
How it was run: as §1

SK-LMS-1 [4] = assay: as above
How it was run: as §1

RD [5] = assay: as above
How it was run: as §1

MES-SA [6] = assay: standardised AUC of viability dose-response curve (72 h) (fraction (0-1)); higher = less growth inhibition (more resistant)
How it was run: (§2)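 Viability of sarcoma cell lines was read with ATPLite after 72 h of triplicate treatment in 384-well plates with 2.5 µl of compound from a compound-plate series of 10 mM to 0.0002 mM. Viability was scaled 1 (full) to 0 (none) and fitted with a four-parameter log-logistic model for each drug and cell line. The reported standardised area under the dose-response curve in log-dose space comes from a modified drexplorer computeAUC, where 1 is no response and 0 is full response.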

G401 = assay: as above
How it was run: as §2

HS729 [7] = assay: as above
How it was run: as §2

SK-ES-1 = assay: as above
How it was run: as §2

SW982 = assay: as above
How it was run: as §2

RD-ES = assay: as above
How it was run: as §2

A204 = assay: as above
How it was run: as §2

VA-ES-BJ [8] = assay: as above
How it was run: as §2

SYO-1 = assay: as above
How it was run: as §2

SK-LMS-1 [9] = assay: as above
How it was run: as §2

HT1080 = assay: as above
How it was run: as §2

SW1353 = assay: as above
How it was run: as §2

KHOS-NP = assay: as above
How it was run: as §2

SW684 = assay: as above
How it was run: as §2

KHOS-240S = assay: as above
How it was run: as §2

SW872 = assay: as above
How it was run: as §2

RD [10] = assay: as above
How it was run: as §2

COC(=O)[C@@]1(O)C[C@H]2O[C@]1(C)n1c3ccccc3c3c4c(c5c6ccccc6n2c5c31)C(=O)NC4 [K-252a]
relative viability
Conditions | HS729 [2] | MES-SA [1] | RD [5] | SK-LMS-1 [4] | VA-ES-BJ [3]
0.00017 µM | 1.06 | 0.97 | 1.07 | 1.03 | 1.09
0.00051 µM | 1.02 | 0.953 | 1.08 | 1.01 | 1.07
0.00152 µM | 1 | 0.956 | 1.11 | 1.04 | 1.09
0.00457 µM | 0.923 | 0.916 | 1.12 | 1.044 | 1.07
0.01372 µM | 0.863 | 0.827 | 1.13 | 0.9 | 1.05
0.04115 µM | 0.754 | 0.618 | 1.13 | 0.719 | 0.922
0.1235 µM | 0.713 | 0.596 | 1.09 | 0.664 | 0.773
0.3704 µM | 0.752 | 0.407 | 1 | 0.619 | 0.67
1.111 µM | 0.588 | 0.324 | 0.507 | 0.339 | 0.381
3.333 µM | 0.356 | 0.0952 | 0.278 | 0.212 | -0.0139
10 µM | 0.0254 | 0.00197 | 0.0929 | 0.0825 | -0.0189

Cc1cc2c(F)c(Oc3ncnn4cc(OC[C@@H](C)O)c(C)c34)ccc2[nH]1 [Brivanib]
relative viability
Conditions | HS729 [2] | MES-SA [1] | RD [5] | SK-LMS-1 [4] | VA-ES-BJ [3]
0.00017 µM | 0.93 | 0.897 | 1.07 | 1.03 | 1.01
0.00051 µM | 0.949 | 0.908 | 1.06 | 1.03 | 1.03
0.00152 µM | 0.955 | 0.8964 | 1.08 | 1.02 | 1
0.00457 µM | 0.943 | 0.892 | 1.07 | 1.03 | 0.996
0.01372 µM | 0.929 | 0.919 | 1.11 | 1.02 | 0.96
0.04115 µM | 0.912 | 0.917 | 1.1 | 1.03 | 1
0.1235 µM | 0.925 | 0.921 | 1.1 | 1.06 | 1.011
0.3704 µM | 0.964 | 0.935 | 1.091 | 1.02 | 1.03
1.111 µM | 0.963 | 0.934 | 1.08 | 1.04 | 1.06
3.333 µM | 0.921 | 0.926 | 1.07 | 1.03 | 1.07
10 µM | 0.856 | 0.636 | 0.964 | 0.687 | 1.07

CNC(=O)c1nnc(NC(=O)C2CC2)cc1Nc1cccc(-c2ncn(C)n2)c1OC
relative viability
Conditions | HS729 [2] | MES-SA [1] | RD [5] | SK-LMS-1 [4] | VA-ES-BJ [3]
0.00017 µM | 0.934 | 0.926 | 1.1 | 1.09 | 0.986
0.00051 µM | 0.925 | 0.938 | 1.11 | 1.09 | 0.996
0.00152 µM | 0.869 | 0.926 | 1.12 | 1.06 | 1.02
0.00457 µM | 0.885 | 0.92 | 1.12 | 1.08 | 1.04
0.01372 µM | 0.9 | 0.943 | 1.1 | 1.1 | 1.035
0.04115 µM | 0.931 | 0.952 | 1.09 | 1.06 | 1.03
0.1235 µM | 0.906 | 0.944 | 1.11 | 1.08 | 1.03
0.3704 µM | 0.8552 | 0.943 | 1.08 | 1.06 | 1.01
1.111 µM | 0.86 | 0.923 | 1.1 | 1.05 | 1.04
3.333 µM | 0.84 | 0.891 | 1.09 | 1.06 | 0.974
10 µM | 0.761 | 0.669 | 0.994 | 0.797 | 0.828

Conditions | standardised AUC
A204 | 0.978
G401 | 0.99
HS729 [7] | 0.956
HT1080 | 0.992
KHOS-240S | 0.976
KHOS-NP | 0.993
MES-SA [6] | 0.984
RD [10] | 0.983
RD-ES | 0.99
SK-ES-1 | 0.958
SK-LMS-1 [9] | 0.988
SW684 | 0.991
SW872 | 0.983
SW982 | 0.983
SW1353 | 0.986
SYO-1 | 0.989
VA-ES-BJ [8] | 0.986

O=c1sn(-c2cccc3ccccc23)c(=O)n1Cc1ccccc1 [Tideglusib]
relative viability
Conditions | HS729 [2] | MES-SA [1] | RD [5] | SK-LMS-1 [4] | VA-ES-BJ [3]
0.00017 µM | 1.1 | 0.972 | 1.08 | 1.02 | 1.1
0.00051 µM | 1.07 | 0.971 | 1.12 | 1.01 | 1.12
0.00152 µM | 1.07 | 0.946 | 1.13 | 1.02 | 1.08
0.00457 µM | 1.04 | 0.968 | 1.12 | 1.01 | 1.1
0.01372 µM | 1.03 | 0.962 | 1.14 | 0.994 | 1.08
0.04115 µM | 1 | 0.963 | 1.13 | 1.02 | 1.08
0.1235 µM | 0.972 | 0.959 | 1.11 | 1.02 | 1.08
0.3704 µM | 0.956 | 0.95 | 1.1 | 0.993 | 1.04
1.111 µM | 0.908 | 0.94 | 1.1 | 1 | 1.07
3.333 µM | 0.933 | 0.924 | 1.12 | 1.01 | 1.04
10 µM | 0.861 | 0.878 | 1.12 | 0.986 | 1.02
